Values quoted from earlier work as cited in patent US20040142045A1, “THERAPEUTIC TREATMENT FOR BLOOD SUGAR REGULATION” (priority 2003, published 2004).
Where two headings read alike, the source gives them in different places.

Legend:
[1] = Type 1 and Type 2 diabetics, supplementation
[2] = another study, supplementation
[3] = experimental animals
[4] = animal models of insulin resistance and Type 2 diabetic patients
[5] = diabetic animals
[6] = system: glucokinase; details: supplementation
[7] = insulin dependent diabetes mellitus
[8] = diabetics, dietary supplementation
[9] = mice with abnormally high glucose concentrations

In the case of [Zn] [Zinc], the insulin levels [1] is listed as “improve”.
In the case of O=S(=O)([O-])[O-].[O]=[V+2] [vanadyl sulfate], the “fasting blood glucose and hepatic insulin resistance” value [2] is given as “modest reductions”.
For NC(=O)c1cccnc1 [Nicotinamide], the development of diabetes [3] is given as “prevent”.
In the case of O=C(O)CCCCC1CCSS1 (stereo not drawn) [Alpha lipoic acid], the “insulin regulated glucose disposal” value [4] is given as “improve”, the blood glucose levels [5] is given as “lower” and the “glucose uptake into the peripheral tissues” value [5] is given as “enhanced”.
For O=C(O)CCCC[C@@H]1SC[C@@H]2NC(=O)N[C@@H]21 [Biotin], the activity of glucokinase [6] is listed as “increase” and the “fasting blood glucose levels” value [7] is listed as “significant reduction”.
For [Cr] [chromium], the “fasting blood glucose levels” value [8] is listed as “decrease”.
In the case of methylhydroxy chalcone polymer, the glucose concentrations [9] is listed as “fell dramatically”.
